In one assay the target is T1, hGPR119 (Homo sapiens, UniProt Q8TDV5).
T1 construct: expressed in transfected cells
T1 sequence (Q8TDV5 2-335): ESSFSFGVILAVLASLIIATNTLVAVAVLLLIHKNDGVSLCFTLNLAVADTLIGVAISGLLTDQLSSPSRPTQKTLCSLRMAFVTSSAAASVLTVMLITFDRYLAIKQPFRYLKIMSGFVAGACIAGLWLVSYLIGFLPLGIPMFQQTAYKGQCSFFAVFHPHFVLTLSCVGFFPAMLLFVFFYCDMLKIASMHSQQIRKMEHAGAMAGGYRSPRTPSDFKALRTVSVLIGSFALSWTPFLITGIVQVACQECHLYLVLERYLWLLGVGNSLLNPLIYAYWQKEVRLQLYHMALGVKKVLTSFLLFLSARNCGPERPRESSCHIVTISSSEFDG
Description: HTRF assay for direct cAMP measurement in CHO-K1 cells stably expressing the GPR119 receptor. Type of assay: cell-based. As for the experimental part:
GPR119 agonists were evaluated in an HTRF® cAMP detection assay (Cisbio, cAMP Dynamic 2 Assay Kit; #62AM4PEJ) according to the manufacturer's instructions using CHO-K1 cells stably expressing the GPR119 receptor. CHO-K1 cells were transduced with a lentiviral vector encoding the nucleotide sequence of GPR119 (NCBI mRNA and protein reference sequences: NM_178471.2 & NP_848566). The N-terminus of the GPR119 nucleotide sequence was modified to replace the first, methionine-coding, codon with a nucleotide sequence coding for a standard, nine amino acid, hemagglutinin tag. Following transduction, cells expressing the GPR119 receptor were isolated and a single clone was isolated following standard dilution-cloning procedures. On the day of the assay, cultured CHO-GPR119 cells were harvested, suspended in assay buffer and plated into 384-well assay plates (PerkinElmer® Proxiplate® #6008280) at a density of 2,000 cells per well. A cAMP standard curve was added to each plate. Test compounds were dissolved in DMSO, serially diluted in DMSO and then diluted in assay buffer before addition to the cells. Test compounds were evaluated in triplicate, using 10-point, 5-fold serial dilutions starting at 10 μM. The final DMSO concentration in the assay was 0.5%. Compounds and cells were incubated for 1 h at room temperature and then detection reagents were added to each well (cAMP-D2 in cell lysis buffer, followed by europium cryptate-labeled anti-cAMP antibody). Plates were then incubated at room temperature for 1 h prior to reading. Time-resolved fluorescence measurements were collected on PerkinElmer Envision™ or BMG Pherastar™ microplate readers. The compound N-(2-fluoro-4-(methylsulfonyl) phenyl)-6-(4-(3-isopropyl-1,2,4-oxadiazol-5-yl)piperidin-1-yl)-5-nitropyrimidin-4-amine was used as a positive control in each runset while assay buffer containing 0.5% DMSO was used as the negative control. The HTRF® assay was used to determine EC50 values for GPR119 agonists.
On the technique in general: In TR-FRET formats the signal depends on donor and acceptor labels being close together.

Assay [1] concerns male 129SVE mice. The assay is described as follows: GIP release in male 129SVE mice (plasma total GIP, ELISA). The following applies: 3 or 30 mg/kg p.o.; blood sample after 45 min. It is filed as in vivo. As for the experimental part: Male 129SVE mice (approximately 8 weeks old) were fasted for 18 h and randomly grouped (n=6) to receive a GPR119 agonist (Compound 17) at 3 or 30 mg/kg. Compound 17 was delivered orally via a gavage needle (p.o., 4 mL/kg), and after 45 min a blood sample was collected to determine plasma total GIP levels. A separate control group received vehicle (PET (80% PEG: 10% Ethanol: 10% Tween80™)). Plasma GIP levels were determined using a GIP (total) ELISA kit from Millipore.

The test system of assay [2] is male 129SVE mice. Description: Oral glucose tolerance test (oGTT), glucose homeostasis in male 129SVE mice. It is filed as in vivo. As for the experimental part:
Male 129SVE mice (approximately 8 weeks old) were fasted for 18 h and randomly grouped (n=6) to receive a GPR119 agonist (Compound 17) at 3 or 10 mg/kg (mg/kg body weight). The compound was delivered orally via a gavage needle (p.o., 4 mL/kg) 30 minutes prior to glucose bolus (3 g/kg) (time=−30 min in FIG. 1), with a separate group receiving vehicle (20% hydroxypropyl-beta-cyclodextrin (HPCD)) as control. At time 0 min the glucose bolus was administered. Levels of blood glucose were assessed using a glucometer (One-Touch Ultra™, LifeScan) at time −30 min (prior to compound administration), at 0 min (at time when glucose bolus was given), and at 20, 40, 60, 120 min post glucose bolus. Plasma glucose levels (Table B) and the glucose excursion curve (FIG. 1) are shown. The reduction in the glucose excursion area under the curve (AUC) from −30 to 120 min in GPR119 agonist-treated animals relative to vehicle is shown in FIG. 2.

Compound `CCc1cnc(N2CCN([C@H]3CC[C@H](COc4ccc(S(C)(=O)=O)cc4)CC3)CC2)nc1` [Compound 5, 5-Ethyl-2-(4-((1r,4r)-4-((4-(methylsulfonyl)phenoxy)methyl)cyclohexyl)piperazin-1-yl)pyrimidine] yielded an EC50 on hGPR119 of 0.106 µM.

With `CS(=O)(=O)c1ccc(OC[C@H]2CC[C@H](N3CCN(c4ncc(Cl)cn4)CC3)CC2)c(F)c1` [Compound 17, 5-Chloro-2-(4-((1r,4r)-4-((2-fluoro-4-(methylsulfonyl)phenoxy)methyl)cyclohexyl)piperazin-1-yl)pyrimidine], it took 0.0518 µM to reach a half-maximal effect on hGPR119 (EC50). For the same compound, in the assay with male 129SVE mice [1], the “Effect on GIP release (plasma total GIP)” value is reported as “stimulated the release of GIP”. Moreover, the “Plasma Glucose, Mean” value in the assay on male 129SVE mice [2] (3 mg/kg p.o., 20 min post glucose bolus) is 263.5 mg/dL; with male 129SVE mice [2] (3 mg/kg p.o., 40 min post glucose bolus) it was 304.8333 mg/dL; in the assay on male 129SVE mice [2] (3 mg/kg p.o., 60 min post glucose bolus), 247.6667 mg/dL; in the assay on male 129SVE mice [2] (3 mg/kg p.o., 120 min post glucose bolus), 166.3333 mg/dL; with male 129SVE mice [2] (3 mg/kg p.o., time relative to glucose bolus 0 min), 88.0 mg/dL; with male 129SVE mice [2] (3 mg/kg p.o., time relative to glucose bolus −30 min (prior to compound administration), oGTT, glucose 3 g/kg), 67.33 mg/dL. Moreover, the “Plasma Glucose, Mean” value is recorded as 203.8333 mg/dL in the assay with male 129SVE mice [2] (10 mg/kg p.o., 20 min post glucose bolus); 234.8333 mg/dL in the assay on male 129SVE mice [2] (10 mg/kg p.o., 40 min post glucose bolus); 186.1667 mg/dL in the assay with male 129SVE mice [2] (10 mg/kg p.o., 60 min post glucose bolus); 167.3333 mg/dL in the assay on male 129SVE mice [2] (10 mg/kg p.o., 120 min post glucose bolus); 96.33 mg/dL in the assay with male 129SVE mice [2] (10 mg/kg p.o., time relative to glucose bolus 0 min); 68.5 mg/dL in the assay on male 129SVE mice [2] (10 mg/kg p.o., time relative to glucose bolus −30 min (prior to compound administration), oGTT, glucose 3 g/kg). The “Effect on blood glucose after challenge with glucose” value in the assay with male 129SVE mice [2] (3 or 10 mg/kg p.o., 30 minutes prior to glucose bolus, relative to vehicle) is “lowered blood glucose”.

Consider `N#Cc1ccc(OC[C@H]2CC[C@H](N3CCN(c4ncc(C(F)(F)F)cn4)CC3)CC2)cc1` [Compound 23, 4-(((1r,4r)-4-(4-(5-(Trifluoromethyl)pyrimidin-2-yl)piperazin-1-yl)cyclohexyl)methoxy) benzonitrile], for which a half-maximal effect at hGPR119 (EC50) was put at 1.38 µM. In other words, the single-digit micromolar range.

For the compound `Cc1nc(S(C)(=O)=O)ccc1OC[C@H]1CC[C@H](N2CCN(c3ncc(C(F)(F)F)cn3)C[C@@H]2C)CC1` [Compound 26, 2-((S)-3-Methyl-4-((1r,4S)-4-((2-methyl-6-(methylsulfonyl)pyridin-3-yloxy)methyl)cyclohexyl)piperazin-1-yl)-5-(trifluoromethyl)pyrimidine], the EC50 on hGPR119 stood at 0.6 µM.

On hGPR119, `C[C@@H]1CN(c2ncc(Cl)cn2)CCN1[C@H]1CC[C@H](COc2ccc(S(C)(=O)=O)cc2F)CC1` [Compound 31, 5-Chloro-2-((R)-4-((1r,4R)-4-((2-fluoro-4-(methylsulfonyl)phenoxy)methyl)cyclohexyl)-3-methylpiperazin-1-yl)pyrimidine] yielded an EC50 of 0.0701 µM.

For the compound `CN(C)C(=O)c1ccc(OC[C@H]2CC[C@H](N3CCN(C(=O)OC(C)(C)C)CC3)CC2)c(F)c1` [Compound 38, tert-Butyl 4-((1r,4r)-4-((4-(dimethylcarbamoyl)-2-fluorophenoxy)methyl)cyclohexyl)piperazine-1-carboxylate], on hGPR119, a half-maximal effect (EC50) was put at 0.219 µM.

Consider `C[C@@H](OC(=O)N1CCN([C@H]2CC[C@H](COc3ccc(-n4cnnn4)cc3F)CC2)CC1)C(F)(F)F` [Compound 44, (R)-1,1,1-Trifluoropropan-2-yl 4-((1r,4R)-4-((2-fluoro-4-(1H-tetrazol-1-yl)phenoxy)methyl)cyclohexyl) piperazine-1-carboxylate], for which the midpoint of the response on hGPR119, the EC50, lay at 0.0222 µM.

`CS(=O)(=O)c1ccc(OC[C@H]2CC[C@H](N3CCN(c4nc(C(F)(F)F)no4)CC3)CC2)c(F)c1` [Compound 64, 5-(4-((1r,4r)-4-((2-Fluoro-4-(methylsulfonyl)phenoxy)methyl)cyclohexyl)piperazin-1-yl)-3-(trifluoromethyl)-1,2,4-oxadiazole]: on hGPR119, the half-maximal effective concentration (EC50) came to 0.0137 µM.

A word on the EC50: it is the midpoint of the concentration-response curve. Read a low EC50 as greater potency.

(Values after patent US20140066369A1, “Modulators Of The GPR119 Receptor And The Treatment Of Disorders Related Thereto” (ARENA PHARMACEUTICALS, INC., priority 2011, published 2014).)
